# Entries after “also recorded” stand apart in the source; their conditions may differ.
# Assays:
# [1] = format: physicochemical
# Experimental: The solubility of Rebaudioside A (RA), Stevioside (STV), α-1,6 transglucosylated Rebaudioside A (RA-Glu) of Example 1-1, and transglucosylated Stevioside (STV-Glu) was measured. In particular, the transglucosylated Stevioside was obtained by reacting Stevioside and sucrose in the presence of a glucosyltransferase in the same manner as in Example 1-1.
# 6 g of each of Rebaudioside A, Stevioside, transglucosylated Rebaudioside A, and transglucosylated Stevioside was mixed with 10 ml and then dissolved by sonication at 50° C. for 60 minutes. The resultant was incubated for 1 week in a water bath at 5° C., 15° C., 25° C., 35° C., 45° C., or 55° C. Thereafter, the resulting solution was centrifuged at 12000 rpm for 10 minutes, and 1 ml of the supernatant was collected and dried in an oven at 105° C. to measure the solubility.
# [2] = Evaluation of actual sweetness and quality of sweetness by panels; format: in vivo; settings: sample dissolved in water, evaluated by panels
# Text: Two samples prepared in Example 1-1 above were independently dissolved in water and provided to panels for evaluation of actual sweetness and the quality of sweetness.
Substance,Solubility (%) [1],"solubility as compared to Stevioside and Rebaudioside A, respectively [1]",Actual Sweetness [2],Quality of Sweetness [2]
transglucosylated Stevioside [STV-Glu],≥ 40↑ %,remarkably increased solubility,,
"α-1,4 transglucosylated Rebaudioside A",,,19,"Bitter taste is stronger than sweet taste, has greasy"
"α-1,6 transglucosylated Rebaudioside A [RA-Glu]",≥ 40↑ %,remarkably increased solubility,,"better quality of sweetness; also recorded: Gives sweet taste in the beginning, has a bit of bitter"
